From patent US11298333B1, “Methods of reducing the risk of cardiovascular events in a subject” (Amarin Pharmaceuticals Ireland Limited, priority 2018, dated 2022)
Read-outs that look alike come from different tables or passages of the source.

System: hypertriglyceridemic patients with cardiovascular disease or at high risk for cardiovascular disease
Assay type: in vivo
Conditions: for Key secondary composite endpoint: relative risk reduction vs placebo / Primary composite endpoint: relative risk reduction vs placebo: over 5 years
Text: The following study, also referred to as the REDUCE-IT clinical trial, was a large cardiovascular (CV) outcome trial designed to assess CV risk reduction benefit of AMR101 treatment (commercially known as VASCEPA®) versus placebo on the 5-point primary composite endpoint: CV death, non-fatal stroke, non-fatal myocardial infarction (MI), coronary revascularizations, or unstable angina requiring hospitalization.
A multi-center, prospective, randomized, double-blind, placebo-controlled, parallel-group study was performed to evaluate the effect of AMR101 (4 g per day) on cardiovascular health and mortality in hypertriglyceridemic patients with cardiovascular disease or at high risk for cardiovascular disease. The intended expanded indication of the study was treatment with AMR101 as an add-on to statin therapy to reduce the risk of cardiovascular events in patients with clinical cardiovascular disease or with multiple risk factors for cardiovascular disease.
The primary objective of this study was, in patients at LDL-C goal while on statin therapy, with established cardiovascular disease (CVD) or at high risk for CVD, and hypertriglyceridemia (e.g., fasting triglycerides (TG) ≥200 mg/dL and <500 mg/dL), to evaluate the effect of AMR101 4 g daily on time from randomization to first occurrence of any component of the composite of the following major CV events: CV death; nonfatal MI; (including silent MI; electrocardiograms (ECGs) were performed annually for the detection of silent MIs); nonfatal stroke; coronary revascularization; and unstable angina determined to be caused by myocardial ischemia by invasive/non-invasive testing and requiring emergent hospitalization.
The key secondary objective of this study was to evaluate the effect of AMR101 4 g daily on the time from randomization to the first occurrence of the composite of following major CV events: CV death, nonfatal MI (including silent MI), and nonfatal stroke.
Other secondary objectives for this study were to evaluate the effect of therapy on time from randomization to the first occurrence of the following individual or composite endpoints: composite of CV death or nonfatal MI (including silent MI); fatal or nonfatal MI (including silent MI); non-elective coronary revascularization represented as the composite of emergent or urgent classifications; CV death; unstable angina determined to be caused by myocardial ischemia by invasive/non-invasive testing and requiring emergent hospitalization; fatal or nonfatal stroke; composite of total mortality, nonfatal MI (including silent MI), or nonfatal stroke; and total mortality.
Primary Efficacy Endpoint: The primary efficacy endpoint was time from randomization to the first occurrence of the composite of the following clinical events: CV death; nonfatal MI (including silent MI; ECGs were performed annually for the detection of silent MIs); nonfatal stroke; coronary revascularization; and unstable angina determined to be caused by myocardial ischemia by invasive/non-invasive testing and requiring emergent hospitalization. The first occurrence of any of these major adverse vascular events during the follow-up period of the study were included in the incidence.
Secondary Efficacy Endpoints: The key secondary efficacy endpoint was the time from randomization to the first occurrence of the composite of CV death, nonfatal MI (including silent MI), or nonfatal stroke. […]

[1] = 4 g/day, ITT, hierarchical secondary endpoint
[2] = 4 g/day, ITT, median follow-up 4.9 years
[3] = 4 g/day, ITT, time to first event, median follow-up 4.9 years
[4] = 4 g/day, ITT, time to first event
[5] = 4 g/day, ITT, time to first event, listed as AMR101

SMILES: CC/C=C\C/C=C\C/C=C\C/C=C\C/C=C\CCCC(=O)OCC [Icosapent Ethyl, eicosapentaenoic acid ethyl ester]
- Cardiac arrest: reduction vs placebo (4 g/day): 48%
- Reduction in heart attack vs placebo (4 g/day): 31%
- Sudden death: reduction vs placebo (4 g/day): 31%
- Cardiovascular death: relative risk reduction vs placebo (4 g/day, ITT): 20%
- Composite of cardiovascular death or nonfatal myocardial infarction: RRR (4 g/day, ITT): 25%
- Composite of total mortality, nonfatal myocardial infarction, or nonfatal stroke: RRR (4 g/day, ITT): 23%
- Fatal or nonfatal myocardial infarction: RRR (4 g/day, ITT): 31%
- Fatal or nonfatal stroke: RRR (4 g/day, ITT): 28%
- Total mortality: HR vs placebo (4 g/day, ITT): 0.87
- Total mortality: relative risk reduction vs placebo (4 g/day, ITT): 13%
- Cardiovascular death: HR vs placebo [1]: 0.80
- Cardiovascular death: patients with event [1]: 4.3%
- Total mortality (death from any cause): patients with event (4 g/day, ITT, last hierarchical secondary endpoint): 6.7%
- Key secondary composite endpoint: absolute risk reduction vs placebo [2]: 3.6%
- Primary composite endpoint: absolute risk reduction vs placebo [2]: 4.8%
- Key secondary composite endpoint (CV death, nonfatal MI, or nonfatal stroke): patients with event [3]: 11.2%
- Primary composite endpoint (CV death, nonfatal MI, nonfatal stroke, coronary revascularization, or unstable angina): patients with event [3]: 17.2%
- Key secondary composite endpoint: relative risk reduction vs placebo [4]: 26%
- Primary composite endpoint: relative risk reduction vs placebo [4]: 25%
- Key secondary composite endpoint: relative risk reduction vs placebo [5]: 26%
- Primary composite endpoint: relative risk reduction vs placebo [5]: 25%
- Adjudicated tertiary endpoint of heart failure: patients with event (4 g/day, no significant difference vs placebo): 4.1%
- Primary endpoint: risk reduction in post hoc analysis excluding patients with diarrhea (post hoc): 25%
- Adjudicated sudden cardiac death: patients with event (tertiary endpoint, 4 g/day, ITT): 1.5%
- Cardiac Arrest: HR (95% CI) (tertiary endpoint, vs placebo): 0.52 (0.31, 0.86)
- Coronary Revascularization: HR (95% CI) (tertiary endpoint, vs placebo): 0.66 (0.58, 0.76)
- Elective Revascularization: HR (95% CI) (tertiary endpoint, vs placebo): 0.68 (0.57, 0.82)
- Emergent Revascularization: HR (95% CI) (tertiary endpoint, vs placebo): 0.62 (0.42, 0.92)
- Ischemic Stroke: HR (95% CI) (tertiary endpoint, vs placebo): 0.64 (0.49, 0.85)
- New Heart Failure Requiring Hospitalization: HR (95% CI) (tertiary endpoint, vs placebo): 0.97 (0.77, 1.22)
- New Heart Failure: HR (95% CI) (tertiary endpoint, vs placebo): 0.95 (0.77, 1.17)
- Primary Endpoint in Patients with Diabetes at Baseline: HR (95% CI) (tertiary endpoint, vs placebo): 0.77 (0.68, 0.87)
- Salvage Revascularization: HR (95% CI) (tertiary endpoint, vs placebo): 0.00 (0.00, —)
- Urgent Revascularization: HR (95% CI) (tertiary endpoint, vs placebo): 0.66 (0.54, 0.79)
